Data set [1] concerns mesenchymal stem cells (MSCs). In words: cardiogenic morphological transition of cultured MSCs (phase contrast microscope). It counts as cell-based, rat. Conditions: for MSCs undergoing narrowing and becoming more refractive (cardiogenic morphological transition), D3 / MSCs undergoing narrowing and becoming more refractive (cardiogenic morphological transition), D7: 10 μg/ml; for MSCs undergoing narrowing and becoming more refractive (cardiogenic morphological transition), D3: treated for 3 days; for MSCs undergoing narrowing and becoming more refractive (cardiogenic morphological transition), D7: treated for 7 days; for activity in inducing cardiogenic differentiation of MSCs (in words): summary statements. The method, then: FIG. 14 presents photomicrographs that illustrate the activity of Car, HUYA-1 and HUYA-2, each 10 μg/ml, in inducing the cardiogenic morphological transition of mesenchymal stem cells (MSCs). D0, cultures of MSCs were set up before any treatment. The morphology of the MSCs was characterized by flat, irregular, low refracted and well-spread shapes (circles). D3, sample of the cultured MSCs were treated for 3 days with compounds as respectively labeled. […] D7, the cultured MSCs samples were treated for 7 days with compounds as respectively labeled. More MSCs (˜48%) in Car- and HUYA-1-treated cultures underwent narrowing and became more refractive (circles).
FIG. 15 provides a comparison, via photomicrographs, of HUYA-3 (10 μg/ml) with HUYA-4 (10 μg/ml) in inducing cardiogenic morphological transition of MSCs. Ctrl denotes the MSCs treated with vehicle (10% DMSO in equivalent volume). D0, the MSCs cultures were set before any treatment. The morphology of the MSCs was characterized by flat, irregular, low refracted and well-spread shapes (circles). D3, sample of the cultured MSCs were treated for 3 days with compounds as respectively labeled. […] D7, the cultured MSCs samples were treated for 7 days with compounds as respectively labeled. A similar amount of the MSCs (˜22%) in HUYA-4-treated cultures became narrowing and more refractive (ovals).
Testing was performed according to the procedures described in the following: The tibias/femur bones of rats were removed and the BM was flushed out of the bones with alpha IMDM culture medium. The BM was mixed well and centrifuged at 1,500 rpm for 5 minutes. The cell pellet was suspended with 3 ml culture medium, and the forming cell suspension was carefully put on 4 ml Ficoll solution, to minimize disturbance, and then was centrifuged at […] for 30 minutes. The second layer was transferred into a tube and washed twice with PBS to remove Ficoll (1,200 rpm for 5 minutes). The resulting cell pellet was resuspended in IMDM culture medium containing 10% heat-inactivated FBS (GIBCO) and 1% penicillin/streptomycin antibiotic mixture, and this was used for the tests. Non-adherent cells were discarded after 24 hours culturing. The adherent cells were cultured by changing medium every 3 days. The cells became nearly confluent after 14 days culture. To activate the cardiogenic morphology transition, the MSCs were cultured for 7 days in the presence of the HUYA-1, HUYA-2, HUYA-3, HUYA-4 or Car (10 μg/ml IMDM culture medium), respectively. The treating period-dependent morphological transition was evaluated, on a time-lapse basis, with a phase contrast microscope.

A short description of data set [2]: stress tests of the separated cardiogenin isomers. Conditions: storage in MTBE/IPA=50:50 or as solids at 40° C. for 24 hours.
Method: Stress tests were performed to determine whether the two cardiogenin isomers separated from each other are stable and not converting into each other. In particular, the two cardiogenin isomers were stressed by storage in MTBE/IPA=50:50 or as solids at 40° C. (the major isomer in solution and solid; the minor isomer only in solution) for 24 hours.
The subject of data set [3] is mesenchymal stem cells (MSCs). In words: fluorescent immunocytochemistry for cardiogenic differentiation markers Mef2a and MHC beta in treated MSCs. It is filed as cell-based, rat. Conditions: 10 μg/ml; for treated cells with Mef2a-positive staining (D3): treated for 3 days; for treated cells with MHC beta-positive signals (D7): treated for 7 days. The method, then: FIG. 16 depicts immunofluorescence staining for expression of cardiogenic differentiation markers, Mef2a (fluorescence in D3) and beta, MHC beta (fluorescence in D7). D3 and D7, the cultured MSCs samples were treated with the compounds, as labeled, for 3 and 7 days, respectively. Neg is the negative control of MSCs culture, with no use of the first antibody specific to Mef2a or MHC beta, showing negative signals of Mef2a (D3) and MHC (D7) staining Ctrl represents the cultured MSCs treated with the equivalent volume of 10% DMSO, with almost no positive Mef2a (D3) and MHC beta (D7) signals observed.
FIG. 17 depicts immunofluorescence staining for expressions of early cardiogenic differentiation marker, Mef2a (fluorescence in D3) and cardiac specific myosin heavy chain beta, MHC (fluorescence in D7). D3 and D7, the cultured MSCs samples were treated with the compounds, as labeled, for 3 and 7 days, respectively.
The method for the fluorescent-immunostaining is summarize briefly: The cultured cells were fixed with 4% paraformaldehyde in PBS for 15 minutes and permeabilized with 0.5% Triton X-100 for 15 minutes. Dilution of antibodies was as follows: rabbit polyclonal antibodies specific to rat MEF2a (1:500) and mouse monoclonal antibodies specific to MHC (1:500) (both antibodies from Abcam®). Secondary antibodies were goat anti-mouse and rabbit anti-IgG antibodies conjugated with fluorophore (FITC 495/528 and Cy5 650/667, products of Abcam®), respectively. The nuclei were stained with DAPI. Examined by fluorescent microscopy were the cardiogenic differentiation-associated morphological transition and specific marker protein expression of the cultured MSCs.

Another data set relates to GFP-MSCs. In words: differentiation of GFP-MSCs into beating cardiac myocytes in co-culture with rat cardiac myocytes. It counts as cell-based, mice. To be noted: 10 μg/ml. An excerpt:
FIG. 18 depicts HUYA-1-induced differentiation of GFP-MSCs into beating cardiac myocytes in co-culture system. This screenshot was taken from a video showing beating GFP-positive myocytes (enclosed areas) differentiated from the GFP-MSCs, which were co-cultured with rat cardiac myocytes and fibroblasts and then treated with HUYA-1. Since the culture contained non-GFP myocytes and fibroblasts and GFP-MSCs, any beating cells with GFP-positive signals that were identified must have differentiated from GFP-MSCs.
Bone marrow GFP-MSCs were isolated from the tibias/femur bones of GFP-transgenic mice. The GFP-MSCs were co-cultured with the cardiac myocytes isolated from neonatal SD rats in the presence of HUYA-1 (10 μg/ml IMDM culture medium) to mimic the cardiac micro-environment. The cultures were investigated daily, under a fluorescent microscope, to identify beating GFP-positive cells and to gauge the morphological transition of the cultured GFP-MSCs.

Data set [4] in a line: solubility in cell culture medium. It counts as physicochemical. Conditions: compared with HUYA-1. The source says:
The DMSO concentration was increased from 5% to 10% to increase the solubility of HUYA-4.

[5] abbreviates: listed as cardiogenin major isomer.

Entries after “also recorded” stand apart in the source; their conditions may differ.

Take cardiogenin [HUYA-2]: in data set [1], the “MSCs undergoing narrowing and becoming more refractive (cardiogenic morphological transition), D3” value is recorded as “did not show clear morphological changes”; the “MSCs undergoing narrowing and becoming more refractive (cardiogenic morphological transition), D7” value is “no significant morphological change”; the “activity in inducing cardiogenic differentiation of MSCs (in words)” value was “essentially inactive”. Further, the “activity in inducing cardiogenic differentiation of MSCs (in words)” value in data set [1] (listed as minor isomer) was “inactive”. Further, in data set [2], the stability under stress result was “The same picture was obtained”. For the same molecule, in data set [3], the “treated cells with Mef2a-positive staining (D3)” value (shortened to “treated cells … (D3)”) is on record as “almost no positive signals” and the “treated cells with MHC beta-positive signals (D7)” value (“treated cells … (D7)” below) was around 3%.

Take `C[C@@H]1CC[C@]2(C(=O)OC3OC(CO)C(O)C(O)C3O)CC[C@]3(C)C(=CCC4[C@@]5(C)C[C@@H](O)[C@H](O)[C@@](C)(CO)C5CC[C@]43C)C2[C@]1(C)O` (stereo partly shown) [HUYA-1, cardiogenin]: the “MSCs undergoing narrowing and becoming more refractive (cardiogenic morphological transition), D3” value in data set [1] is on record as around 31%. In addition, the “MSCs undergoing narrowing and becoming more refractive (cardiogenic morphological transition), D7” value in data set [1] is around 48%. In addition, in data set [1] (cell culture, summary of FIGS. 14 and 15), the “cultured MSCs induced into cardiogenic differentiation” value is listed as “more than 20%”. Besides, the “activity in inducing cardiogenic differentiation of MSCs (in words)” value in data set [1] is “most active compound”; in data set [1] (setting [5]) it was “substantially enhanced differentiation into cardiomyocytes; also recorded: active”; in data set [1] (listed as isolated cardiogenin major isomer), “biologically active”. Moreover, the “differentiation of MSCs into beating cardiac myocytes” value is reported as “induced cardiogenic differentiation of the GFP-MSCs to form beating cardiac myocytes; also recorded: can enhance the cardiogenic differentiation of MSCs into beating cardiac myocytes” with GFP-MSCs and “beating cardiomyocytes differentiate from MSCs” in the data set with GFP-MSCs (setting [5]). In addition, the “treated cells … (D3)” value in data set [3] is given as “approximately 15%”. Besides, the “treated cells … (D7)” value in data set [3] worked out at 20%.

As to `C[C@@H]1CC[C@]2(C(=O)O)CC[C@]3(C)C(=CCC4[C@@]5(C)C[C@@H](O)[C@H](O)[C@@](C)(CO)C5CC[C@]43C)C2[C@]1(C)O` (stereo partly shown) [HUYA-4], in data set [4], the “solubility in cell culture medium” value is listed as “lower solubility”. In data set [1], the “MSCs undergoing narrowing and becoming more refractive (cardiogenic morphological transition), D3” value is reported as around 20%; the “MSCs undergoing narrowing and becoming more refractive (cardiogenic morphological transition), D7” value is recorded as around 22%; the “activity in inducing cardiogenic differentiation of MSCs (in words)” value is listed as “induced MSCs into cardiogenic differentiation”. The “activity in inducing cardiogenic differentiation of MSCs (in words)” value in data set [1] (listed as aglycone) is “substantially enhanced differentiation into cardiomyocytes”. Further, the “differentiation of MSCs into beating cardiac myocytes” value with GFP-MSCs is recorded as “beating cardiomyocytes differentiate from MSCs”. In addition, in data set [3], the “treated cells … (D3)” value is reported as around 6% and the “treated cells … (D7)” value is given as around 8%.

The record behind these values is patent publication US20130345159A1, “PURIFIED CARDIOGENIN ISOMER AND RELATED METHODS” (HUYA BIOSCIENCE INTERNATIONAL LLC, priority 2010, published 2013).
